Structures are written as SMILES. pIC50, pKd: −log10 of the molar value. Values joined by “and” are separate entries in the source; they are usually repeats but may differ in a detail not shown here. Equal values may be shown once. “Also recorded” adds a separate entry of the source. Some results are limits rather than exact numbers.

In data set [1] the target is NHP adrenal gland tissue. As to the kind of experiment: Competition binding assay against 10 nM [^18F]CETO. More on the design: species or system cynomolgus monkey (non-human primate. The conditions noted are these: residual binding of 10 nM [^18F]CETO, NHP adrenal gland tissue 200 µg/mL, 60 min, room temperature. The procedure:
(§1) Normal NHP adrenal tissue was weighed and homogenized in 20 volumes of ice-cold 0.32 M sucrose and stored in aliquots at -80 °C until use. For the saturation binding study, the homogenate was further diluted to 20 µg/mL in the assay. Triplicates of each ligand concentration in the range of 0.03-30 nmol/L [^18F]CETO, with and without a competing ligand (1 µmol/L metomidate), were incubated at room temperature for 60 min. For the competition binding assay, 200 µg/mL of NHP adrenal gland tissue was used. Triplicate tubes, containing 10 nM [^18F]CETO were incubated for 60 min at room temperature with three competing ligands, MTO, FETO and CETO, at concentrations between 0 and 30 nmol/L, respectively.
(§2) The incubations were terminated by filtration under vacuum through Whatman GF/C glass fibre filters, using a cell harvester (Brandel, Gaithersburg, MD). The filters were washed four times with 3 mL PBS buffer and transferred to scintillation tubes where the trapped radioactivity was measured in an automated gamma counter (Wizard 2480, PerkinElmer Downers Grove, IL, USA).
(§3) The saturation study was repeated twice with normal NHP adrenal gland tissue and the results were used to calculate the equilibrium dissociation constant, Kd, and the total target density for the binding of [^18F]CETO, Bmax. Values for IC50, Bmax and Kd were estimated by GraphPad Prism 8.2, using non-linear regression of the binding curves.

The nature of data set [2]: PET/CT in non-human primate with kinetic modelling. Type of data set: in vivo, Macaca fascicularis. The settings on record: for time of peak uptake in the adrenal glands: SUVmean time-activity curves. The procedure: One female NHP, Macaca fascicularis, was obtained from the Astrid Fagræus Laboratory, Karolinska Institute, Comparative Medicine. The NHP was used to compare the [^18F]CETO and [^11C]MTO biodistribution and their uptake over time in adrenal and liver.
Ketamine (~10 mg/kg) was used as a sedative. Whilst being transported to the PET centre at Uppsala University Hospital, the NPH was weighed and maintained on iterated ketamine injections (15 mg/kg/h). Saturation levels were continuously measured through pulse oximetry, and oxygen administered as needed.
At the PET centre, the NPH was intubated under propofol-induced anaesthesia. General anaesthesia was maintained by sevoflurane inhalation (1.5 - 5.0%) and artificial ventilation. Two venous catheters were placed - one for blood sampling and one for tracer administration. Body temperature, heart rate, ECG, pCO2, pO2, SaO2 and blood pressure levels were monitored throughout the PET study. A General Electric Discovery MI PET/CT scanner (GE Healthcare, Milwaukee, USA) was used.
PET/CT positioning was determined by using a scout CT scan, and 6.5 MBq/kg of [^11C]MTO was administered I.V. through the catheter. A baseline dynamic 90 min PET scan over the abdomen was started. After a sufficient waiting period, to allow for the radioactive decay of carbon-11, 4.2 MBq/kg of [^18F]CETO was injected I.V. A 90 min baseline dynamic PET scan was started and was followed by a 15 min whole-body PET examination. Thereafter, a blockage study was performed by administering 0.5 mg/kg etomidate I.V. for 20 min. At the end of etomidate administration, corresponding to approximately 150 min after the baseline [^18F]CETO injection, 19.3 MB/kg of [^18F]CETO was administered I.V., followed by a 90 min dynamic PET scan. The amount of radioactivity used in the blocking study was nearly fivefold that used during the baseline PET examination, in order to render any remaining activity from the baseline scan negligible. During both [^18F]CETO PET scans, discrete venous blood samples (~2 mL) were collected in heparinized tubes at 5, 10, 20, 40 and 80 min p.i. (3 mL at the last time point) of [^18F]CETO to measure radioactivity in whole blood and in plasma and for metabolite analysis. PET images were reconstructed using an ordered-subsets maximisation (OSEM) algorithm including time-of-flight information and resolution recovery. Dynamic images were reconstructed into time frames with increasing durations.
In the PET images, volumes of interest (VOIs) were drawn over representative subsets of aorta, adrenals, kidneys, liver, lungs, pancreas and spleen and transferred to all dynamic time frames to obtain time-activity curves (TACs), showing SUV as a function of time, after normalization to injected activity per body weight. Plasma TACs were determined by multiplying the aorta TAC with the mean plasma-to-whole blood ratio of the five analysed blood samples. Then, a metabolite-corrected input curve, representing intact tracer in plasma, was calculated by multiplying the plasma TAC with a sigmoid fit to the measured parent fraction data.
Adrenal time-activity curves were fitted using single-tissue as well as irreversible and reversible two-tissue compartment models. The optimal model to describe the data was determined using the Akaike information criterion. In addition, data were analysed using the Patlak and Logan graphical analysis methods, assuming irreversible and reversible kinetics, respectively. Additionally, whole-body net uptake rate parametric images were calculated using the Patlak method.

Data set [3] has as its system CYP11B1 and CYP11B2 in NHP adrenal gland homogenate. Briefly: Saturation binding of [^18F]CETO in adrenal gland homogenate. More on the design: species or system cynomolgus monkey (non-human primate. The conditions noted are these: saturation study. The procedure: as §1, §2, §3
Data set [4] deals with normal NHP adrenal tissue. As to the kind of experiment: In vitro association/dissociation kinetics (LigandTracer). Also on record: species or system cynomolgus monkey (non-human primate. The conditions noted are these: 1:1 kinetic binding model, NHP adrenal homogenate. The procedure: To determine the in vitro kinetics for association and dissociation of [^18F]CETO to normal NHP adrenal tissue, 20 µL of homogenate, corresponding to 40 µg of adrenal, was pipetted to a Poly-D-lysine coated cell dish (CELLCOAT™, Greiner Bio-One GmbH, Austria) and allowed to dry for 15 min. Subsequently, the dishes were placed in the inclined rotating holder of a LigandTracer™ yellow instrument (Ridgeview Instruments AB, Uppsala, Sweden) and [^18F]CETO was added with concentrations ranging from 1 to 5 nM to measure the association rate. A higher concentration was added when the previous concentration had reached equilibrium. To measure the dissociation rate, the radioactive solution was replaced with buffer after the highest concentration reached equilibrium. Data were analyzed with TraceDrawer software (Ridgeview Instruments AB, Uppsala, Sweden) and the association rate constant (kon), dissociation rate constant (koff) and equilibrium dissociation constant (KD) were computed using a 1:1 kinetic binding model.

In data set [5] the test system is human adrenal tumours and normal adrenal gland. As to the kind of experiment: Frozen section autoradiography. Format: binding. The conditions noted are these: 0.03 nmol/L [^18F]CETO, 60 min. The procedure:
Tissues from normal human adrenal glands, liver, kidney, spleen and small intestine were used along with samples of different types of adrenal tumours, aldosterone-producing adenomas (APA), cortisol-producing adenomas (CPA), ACC, and pheochromocytoma (PCC). Normal adrenal gland tissues and spleen tissues from non-human primates (NHPs) were also utilized.
Specimens for autoradiography were prepared from snap-frozen tissue, stored at -70 °C, and divided by a cryotome into 20 μm thick slices. The slices were placed on Superfrost^TM glass slides and stored at -20 °C until the autoradiographic examination. Slides were pre-incubated at room temperature for 20 min in a PBS buffer. Duplicate slides were incubated in 0.03 nmol/L [^18F]CETO for 60 min, in the presence or absence of an excess of metomidate (0.45 µmol/L) to block the specific binding of [^18F]CETO. After incubation, slides were washed for 3 × 3 min in cold PBS buffer, followed by rapid immersion in water. Slides were then dried for 10 min at 37 °C and exposed to Super Resolution Storage Phosphor Screens (PerkinElmer, Downers Grove, IL, USA) for >240 min and scanned in a Cyclone Plus Phosphor Imager (PerkinElmer, Model C431200, Downers Grove, IL, USA).

A short description of data set [6]: Ex-vivo organ distribution in rats. Also on record: species or system Sprague Dawley rats. The procedure:
A biodistribution study for [^18F]CETO was performed in thirty Sprague Dawley rats. A dose of 5.4±0.9 MBq [^18F]CETO was injected as a bolus in the lateral tail vein, to un-sedated rats. Three rats of each gender were then euthanized by high concentrations of CO2, at five predetermined time points; 10, 30, 60, 120 and 240 min post injection (p.i.), respectively, and their organs were harvested and weighed. Radioactivity content in the organs was measured in a well-type NaI(Tl) scintillation counter, applying correction for dead-time and for decay. The organ radioactivity readings were decay-corrected to the time of injection, and results were expressed as standardized uptake values (SUV).

A short description of data set [7]: PET-MRI in rats with and without metomidate blocking. Format: in vivo, Sprague Dawley rats. The text has this:
Sevoflurane inhalation was used for the induction and maintenance of anaesthesia, and an intravenous catheter was placed in the lateral tail vein. After the investigations, the mice/rats were euthanized and their organs harvested and weighed, followed by measurement of radioactivity (as previously described). PET and MRI images were acquired on a Nanoscan PET-3TMRI scanner (Mediso Mediso, Medical Imaging Systems, Budapest, Hungary).
Two male Sprague Dawley rats were positioned on the heated bed of the scanner and a dynamic PET acquisition of the abdomen was initiated immediately before injection of 4-5 MBq of [^18F]CETO. Metomidate (1 µmol/kg) was co-injected in one of the rats as a blocker. The dynamic PET scan was continued for 60 min and was followed by a whole-body static scan, 3 beds, 5 min per bed position ~90 min post injection, and by MRI of the abdomen.
PET acquisition was initiated and 4.0-4.8 MBq of […] was intravenously administered. One of the rats was given metomidate (1 µmol/kg) I.V., for a blockage study. An initial dynamic PET scan of the abdomen was performed for 60 min, followed by a baseline whole body PET scan for 15 min.

A short description of data set [8]: Radio metabolite analysis of [^18F]CETO in NHP plasma. Format: in vivo, Macaca fascicularis. The conditions noted are these: for intact [^18F]CETO: NHP venous plasma.
Data set [9] can be described thus: Observation of adverse effects after tracer injection, NHP. The settings on record: recovery post-anaesthesia. Type of data set: in vivo, Macaca fascicularis. The source says: After the imaging sessions, the NHP was wakened and de-intubated and, once stable, transported back to its living facility.
Data set [10] in a line: Observation of adverse effects after tracer injection, rats. The conditions noted are these: rats following [^18F]CETO injection.

The pIC50 is the IC50 on a negative log10 scale, so that one unit is a factor of ten. `C[C@H](c1ccccc1)n1cncc1C(=O)OCCF` [FETO] gave a pIC50 in data set [1] of 8.52.
For `C[C@H](c1ccccc1)n1cncc1C(=O)O[11CH3]` [[^11C]MTO, [^11C]Metomidate, reference compound], in data set [2] (NHP, 40 minutes p.i.), the highest adrenal-to-liver ratio is given as 1.5. In data set [2] (NHP), the “time of peak uptake in the adrenal glands” value was “approximately 40 min p.i”.
For the compound `COC(=O)c1cncn1C(C)c1ccccc1` (centres unmarked) [MTO, metomidate], in [1], the pIC50 was 8.70.
In general, pKd refers to −log10 of the Kd, conventionally taken in molar units. The term koff denotes the first-order rate constant of dissociation. The half-life is the time in which the quantity being followed falls by half. With `C[C@H](c1ccc(Cl)cc1)n1cncc1C(=O)OCC[18F]` [[^18F]CETO, para-chloro-2-[^18F]fluoroethyl-etomidate], the Bmax in [3] was 0.0082 to 0.0097 nmol/mg; in data set [3] (separate experiments A and B), 0.0097 nmol/mg and 0.0082 nmol/mg. Moreover, the negative logarithm of the Kd (pKd) in data set [3] (room temperature, 60 min, read-out: equilibrium dissociation constant, Kd) was 9.18 and 9.17 to 9.18 and 9.17; in data set [4] (read-out: Kd value derived from the rate constants), 9.23. The compound also displayed an off-rate constant (koff) in [4] of 0.00035 s⁻¹. For the same compound, the “uptake in APAs compared to that of the normal adrenal gland” value in data set [5] was “approximately threefold”. Further, the “time of peak uptake in the adrenal glands” value in data set [6] (ex-vivo biodistribution) was 2 hr p.i; in [2] (NHP), more than 85 min p.i. Besides, the “uptake in all other organs and tissues (SUV)” value in data set [6] (other than adrenal glands and early lungs and pancreas, bone and urinary bladder are exceptions) was approximately 1 SUV. Further, the route of elimination entry in [7] and in [2] (NHPs) was “mainly renal” in each case. In addition, in [7], the “time of peak adrenal uptake” value came out at 120 min p.i. For the same compound, the highest adrenal-to-liver ratio in data set [2] (NHP, 85 min p.i.) is listed as more than 5. Moreover, in data set [2] (NHP, after etomidate 0.5 mg/kg, irreversible two-tissue compartment model), the “rate constant k3 in the adrenal glands after blocking” value was “reduced to zero”. Also, the entries for the “intact [^18F]CETO” value in data set [8] (5 min p.i.) and in data set [8] (80 min p.i.) were 56% and 11%, respectively. Besides, the “[^18F]CETO share of radioactivity in plasma” value in data set [8] (NHP, final observation time point 90 min p.i.) is given as “approximately 10%”. Besides, in data set [8] (female, cynomolgus monkey, plasma, intravenous, NHP, bi-phasic metabolism, read-out: plasma half-life, fast first phase), the half-life was approximately 10 min. Moreover, the adverse effects result is listed as “no adverse effects” in data set [9] and “No adverse effects” in data set [10].
For the compound `C[C@H](c1ccccc1)n1cncc1C(=O)OCC[18F]` [[^18F]FETO, 2-[^18F]fluoroethyl-etomidate], the “blocking of adrenal uptake with metomidate” value in [7] (metomidate 1 µmol/kg) is reported as “unable to block; also recorded: not possible to block”.
On to `C[C@H](c1ccc(Cl)cc1)n1cncc1C(=O)OCCF` [CETO], for which the pIC50 in data set [1] was 8.30.

For the origin of these results see article PMC8040415, “Para-chloro-2-[^18F]fluoroethyl-etomidate: A promising new PET radiotracer for adrenocortical imaging” (International Journal of Medical Sciences, 2021).
